Source: ChEMBL document CHEMBL1123613, “2,4-Diamino-6,7-dimethoxyquinazolines. 3. 2-(4-Heterocyclylpiperazin-1-yl) derivatives as alpha 1-adrenoceptor antagonists and antihypertensive agents” (J Med Chem, 1987)
Calls of active or inactive are those of the source. The rule behind the calls is not given here.

Key:
[1] = system: Rattus norvegicus; experiment: Antihypertensive activity was determined by percent reduction in blood pressure after 6 hr upon peroral administration of 5 mg/kg dose in spontaneously hypertensive rats(SHR).; assay type: functional; conditions: route oral
[2] = target: T1, Adrenergic receptor alpha-2 (Rattus norvegicus) (UniProt P22086+P19328+P22909); experiment: Percent displacement of [3H]clonidine to alpha-2-adrenoceptor was determined in rat brain homogenates at 10E-6 M; assay type: tissue-based
[3] = system: Rattus norvegicus; experiment: Antihypertensive activity was determined by percent reduction in blood pressure after 1 hr upon peroral administration of 5 mg/kg dose in spontaneously hypertensive rats(SHR).; assay type: functional; conditions: route oral
[4] = target: T2, Adrenergic receptor alpha-1 (Rattus norvegicus, UniProt P15823+P23944+P43140); experiment: Binding affinity against alpha-1-adrenoceptor in rat brain homogenates [3H]-prazosin displacement.; assay type: tissue-based
T2 sequence (P15823 whole entry): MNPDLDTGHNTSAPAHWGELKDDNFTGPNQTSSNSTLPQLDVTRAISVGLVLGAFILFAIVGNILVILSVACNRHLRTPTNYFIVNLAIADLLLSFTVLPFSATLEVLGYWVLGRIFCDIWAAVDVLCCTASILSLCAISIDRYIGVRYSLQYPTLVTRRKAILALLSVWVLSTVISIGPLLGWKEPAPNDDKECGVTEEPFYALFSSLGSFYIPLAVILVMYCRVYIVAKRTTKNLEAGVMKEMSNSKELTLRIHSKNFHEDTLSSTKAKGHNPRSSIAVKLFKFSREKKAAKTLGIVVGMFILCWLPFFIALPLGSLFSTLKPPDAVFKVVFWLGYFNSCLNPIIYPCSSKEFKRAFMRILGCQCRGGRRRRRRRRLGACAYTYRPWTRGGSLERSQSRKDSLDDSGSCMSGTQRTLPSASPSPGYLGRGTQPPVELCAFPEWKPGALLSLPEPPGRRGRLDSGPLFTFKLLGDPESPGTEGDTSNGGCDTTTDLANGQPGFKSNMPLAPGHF
T2 sequence (P23944 whole entry): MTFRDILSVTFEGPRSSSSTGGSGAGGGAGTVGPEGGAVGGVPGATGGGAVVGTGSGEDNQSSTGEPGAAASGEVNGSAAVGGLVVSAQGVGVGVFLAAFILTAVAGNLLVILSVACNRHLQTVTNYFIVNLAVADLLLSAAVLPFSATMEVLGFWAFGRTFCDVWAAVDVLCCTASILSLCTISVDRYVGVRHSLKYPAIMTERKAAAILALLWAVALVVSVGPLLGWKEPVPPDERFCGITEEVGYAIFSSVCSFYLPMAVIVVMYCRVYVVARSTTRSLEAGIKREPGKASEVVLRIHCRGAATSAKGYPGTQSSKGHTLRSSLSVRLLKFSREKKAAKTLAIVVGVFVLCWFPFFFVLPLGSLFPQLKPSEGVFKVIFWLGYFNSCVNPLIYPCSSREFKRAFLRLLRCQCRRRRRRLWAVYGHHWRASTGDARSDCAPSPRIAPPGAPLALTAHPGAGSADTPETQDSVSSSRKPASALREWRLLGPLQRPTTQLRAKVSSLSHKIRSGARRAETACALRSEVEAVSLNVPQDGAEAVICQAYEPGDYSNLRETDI
T2 sequence (P43140 whole entry): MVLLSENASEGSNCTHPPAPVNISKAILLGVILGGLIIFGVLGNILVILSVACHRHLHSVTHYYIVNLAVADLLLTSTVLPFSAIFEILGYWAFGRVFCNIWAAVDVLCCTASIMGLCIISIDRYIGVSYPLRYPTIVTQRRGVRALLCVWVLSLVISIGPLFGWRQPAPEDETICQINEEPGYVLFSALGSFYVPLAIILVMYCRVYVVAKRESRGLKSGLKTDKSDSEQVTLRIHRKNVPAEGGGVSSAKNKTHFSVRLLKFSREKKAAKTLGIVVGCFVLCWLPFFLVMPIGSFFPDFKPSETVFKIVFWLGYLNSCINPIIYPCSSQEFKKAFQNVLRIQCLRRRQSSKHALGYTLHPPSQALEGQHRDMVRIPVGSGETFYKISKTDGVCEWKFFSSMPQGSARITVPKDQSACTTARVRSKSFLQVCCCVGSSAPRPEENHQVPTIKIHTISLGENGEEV

[5] = system: Rattus norvegicus; experiment: Antihypertensive activity was determined by percent reduction in blood pressure after 1 hr upon peroral administration of 5 mg/kg dose in spontaneously hypertensive rats(SHR); not significant because of blood pressure falls below 10%; assay type: functional; conditions: route oral
[6] = target: T1, Adrenergic receptor alpha-2 (Rattus norvegicus); experiment: Percent displacement of [3H]clonidine from alpha-2-adrenoceptor in rat brain homogenates at 10E-6 M; Activity of less than 50%.; assay type: tissue-based
[7] = system: Rattus norvegicus; experiment: Antihypertensive activity was determined by percent reduction in blood pressure after 4 hr upon peroral administration of 3 mg/kg dose in spontaneously hypertensive rats(SHR).; assay type: functional; conditions: route oral
[8] = system: Rattus norvegicus; experiment: Antihypertensive activity was determined by percent reduction in blood pressure after 6 hr upon peroral administration of 5 mg/kg dose in spontaneously hypertensive rats(SHR); not significant because of blood pressure falls below 10%; assay type: functional; conditions: route oral

Row | SMILES | Displacement [2] | Ki [4] | Displacement [6] | Reduction [1] | Reduction [3] | Reduction [5] | Reduction [7] | Reduction [8]
1 | COc1cc(N2CCN(c3nc(N)c4cc(OC)c(OC)cc4n3)CC2)nc(OC)n1 | 54.2% | 160 pM |  | 20% | 22% |  |  | 
2 | COc1cc2nc(N3CCN(c4cc(N(C)C)ncn4)CC3)nc(N)c2cc1OC |  |  |  | 18% |  | 8% |  | 
3 | COc1cc2nc(N3CCN(c4cc(OC(C)C)ncn4)CC3)nc(N)c2cc1OC |  | 180 pM | inactive | 49% | 55% |  |  | 
4 | COc1cc2nc(N3CCN(c4ccnc(Oc5ccccc5)n4)CC3)nc(N)c2cc1OC |  | 240 pM | inactive | 24% | 19% |  |  | 
5 | COc1cc2nc(N3CCN(c4nc(N)nc(N)n4)CC3)nc(N)c2cc1OC |  | 470 pM | inactive | 12% |  | 2% |  | 
6 | COc1cc2nc(N3CCN(C(=O)c4ccco4)CC3)nc(N)c2cc1OC [PRAZOSIN] |  |  |  | 29% | 33% |  |  | 
7 | COc1cc2nc(N3CCN(c4cnccn4)CC3)nc(N)c2cc1OC |  | 180 pM | inactive |  |  | 7% |  | 8%
8 | CCCOc1cc(N2CCN(c3nc(N)c4cc(OC)c(OC)cc4n3)CC2)ncn1 |  | 360 pM | inactive | 22% | 39% |  |  | 
9 | COc1cc2nc(N3CCN(c4ccc(OC(C)C)nn4)CC3)nc(N)c2cc1OC |  | 290 pM | inactive |  | 39% |  | 33% | 
10 | COc1nc(OC)nc(N2CCN(c3nc(N)c4cc(OC)c(OC)cc4n3)CC2)n1 |  | 80 pM | inactive | 22% | 15% |  |  | 
11 | COc1cc2nc(N3CCN(c4nc(Oc5ccccc5)nc(Oc5ccccc5)n4)CC3)nc(N)c2cc1OC |  | 870 pM | inactive |  |  | 9% |  | 8%

Now from value to compound, other results behind:

Row | Displacement [2] | Ki [4] | Displacement [6] | SMILES | Reduction [1] | Reduction [3] | Reduction [5] | Reduction [7] | Reduction [8]
12 |  | 260 pM | inactive | COc1cc2nc(N3CCN(c4ncccn4)CC3)nc(N)c2cc1OC | 28% | 40% |  |  | 
13 |  | 310 pM | inactive | COc1cc2nc(N3CCN(c4ccnc(N5CCOCC5)n4)CC3)nc(N)c2cc1OC |  | 16% |  | 43% | 
14 |  | 190 pM | inactive | COc1ccnc(N2CCN(c3nc(N)c4cc(OC)c(OC)cc4n3)CC2)n1 | 14% | 15% |  |  | 
15 |  | 1660 pM | inactive | COc1cc2nc(N3CCN(c4nccc(-c5ccccc5)n4)CC3)nc(N)c2cc1OC | 17% | 17% |  |  | 
16 |  | 400 pM | inactive | COc1cc2nc(N3CCN(c4cccnn4)CC3)nc(N)c2cc1OC |  | 22% |  | 20% | 
17 |  | 320 pM | inactive | CCCOc1ccnc(N2CCN(c3nc(N)c4cc(OC)c(OC)cc4n3)CC2)n1 | 22% | 34% |  |  | 
18 |  | 270 pM | inactive | COc1cc2nc(N3CCN(c4nccc(N(C)C)n4)CC3)nc(N)c2cc1OC | 13% |  | 7% |  | 
19 |  | 920 pM | inactive | COc1cc2nc(N3CCN(c4nccc(C)n4)CC3)nc(N)c2cc1OC | 15% | 28% |  |  | 
20 |  | 270 pM | inactive | COc1cc2nc(N3CCN(c4ccncn4)CC3)nc(N)c2cc1OC |  | 21% |  | 12% | 
